PubChem BioAssay AID248 (DTP/NCI, 2004)
“And” between values parts separate entries of the source, which are not always exact repeats. Identical values can stand only once. Toxic doses and inconclusive results are not listed. No stated cut-off is given here; in the data, active means T/C of 150% or more; inactive means T/C below 125%.

System: L1210 leukemia ip in BDF1 mice, survival T/C
Test: NCI In Vivo Anticancer Drug Screen. Data for tumor model L1210 Leukemia (intraperitoneal) in B6D2F1 (BDF1) mice
Conditions: endpoint: mean survival time, higher = longer survival
In short: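 Survival endpoint. Drug-treated group vs vehicle group, expressed as T divided by C. Tumor passaged by transplantation.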

[1] = dose: 100.0 mg/kg/injection, schedule: Q01DX009 (ip), vehicle: saline with Tween-80
[2] = dose: 100.0 mg/kg/injection, schedule: Q04DX003 (ip), vehicle: saline with Tween-80
[3] = dose: 200.0 mg/kg/injection, schedule: Q01DX009 (ip), vehicle: saline with Tween-80
[4] = dose: 200.0 mg/kg/injection, schedule: Q04DX003 (ip), vehicle: saline with Tween-80
[5] = dose: 400.0 mg/kg/injection, schedule: Q01DX009 (ip), vehicle: saline with Tween-80
[6] = dose: 100.0 mg/kg/injection, schedule: Q01DX009 (ip), vehicle: saline
[7] = dose: 200.0 mg/kg/injection, schedule: Q01DX009 (ip), vehicle: saline
[8] = dose: 100.0 mg/kg/injection, schedule: Q01DX009 (ip), vehicle: Klucel (hydroxypropylcellulose) (HPC)
[9] = dose: 100.0 mg/kg/injection, schedule: Q04DX003 (ip), vehicle: Klucel (hydroxypropylcellulose) (HPC)
[10] = dose: 200.0 mg/kg/injection, schedule: Q01DX009 (ip), vehicle: Klucel (hydroxypropylcellulose) (HPC)
[11] = dose: 200.0 mg/kg/injection, schedule: Q04DX003 (ip), vehicle: Klucel (hydroxypropylcellulose) (HPC)
[12] = dose: 400.0 mg/kg/injection, schedule: Q01DX009 (ip), vehicle: Klucel (hydroxypropylcellulose) (HPC)
[13] = dose: 400.0 mg/kg/injection, schedule: Q04DX003 (ip), vehicle: Klucel (hydroxypropylcellulose) (HPC)
[14] = dose: 100.0 mg/kg/injection, schedule: Q01DX001 (ip), vehicle: carboxymethylcellulose (CMC)
[15] = dose: 200.0 mg/kg/injection, schedule: Q01DX001 (ip), vehicle: carboxymethylcellulose (CMC)
[16] = dose: 400.0 mg/kg/injection, schedule: Q01DX001 (ip), vehicle: carboxymethylcellulose (CMC)
[17] = dose: 100.0 mg/kg/injection, schedule: Q01DX001 (ip), vehicle: saline
[18] = dose: 100.0 mg/kg/injection, schedule: Q04DX003 (ip), vehicle: saline
[19] = dose: 200.0 mg/kg/injection, schedule: Q01DX001 (ip), vehicle: saline
[20] = dose: 200.0 mg/kg/injection, schedule: Q04DX003 (ip), vehicle: saline
[21] = dose: 400.0 mg/kg/injection, schedule: Q04DX003 (ip), vehicle: saline
[22] = dose: 50.0 mg/kg/injection, schedule: Q01DX001 (ip), vehicle: saline

Measured: T/C

O/C(=C/C(=S)S)c1cccs1
inactive: dose: 0.78 mg/kg/injection, schedule: Q01DX009 (ip), vehicle: water 103 % of control | dose: 1.56 mg/kg/injection, schedule: Q01DX009 (ip), vehicle: water 105 % of control | dose: 3.12 mg/kg/injection, schedule: Q01DX009 (ip), vehicle: water 102 % of control | dose: 6.25 mg/kg/injection, schedule: Q01DX009 (ip), vehicle: water 95 % of control | dose: 12.5 mg/kg/injection, schedule: Q04DX003 (ip), vehicle: water 102 % of control | dose: 25.0 mg/kg/injection, schedule: Q04DX003 (ip), vehicle: water 94 % of control | dose: 50.0 mg/kg/injection, schedule: Q04DX003 (ip), vehicle: water 100 % of control

N#CC(=C1C=CC(=NO)C=C1)c1ccc(Cl)cc1
inactive: [1] 97 % of control | [2] 96 % of control | [3] 100 % of control | [4] 107 % of control | [5] 103 % of control | dose: 400.0 mg/kg/injection, schedule: Q04DX003 (ip), vehicle: saline with Tween-80 91 % of control

NC(=S)NN=C1CCSCC1
inactive: dose: 8.4 mg/kg/injection, schedule: Q01DX Z (ip), vehicle: methylcellulose (MC) 96 % of control | dose: 14.0 mg/kg/injection, schedule: Q01DX Z (ip), vehicle: methylcellulose (MC) 92 % of control | dose: 23.0 mg/kg/injection, schedule: Q01DX Z (ip), vehicle: methylcellulose (MC) 98 % of control | dose: 39.0 mg/kg/injection, schedule: Q01DX Z (ip), vehicle: methylcellulose (MC) 98 % of control

C=C1C(=O)OC2CC/C=C\CCC12 (centres undefined)
inactive: dose: 50.0 mg/kg/injection, schedule: Q01DX009 (ip), vehicle: saline 95 % of control | [6] 103 % of control | [7] 95 % of control

COc1cc2c(cc1OC)C(CNC(=O)/C=C/c1ccccc1)C2 (centres undefined)
inactive: [8] 106 % of control | [9] 101 % of control | [10] 101 % of control | [11] 94 % of control | [12] 95 % of control | [13] 97 % of control

CC1C(=O)NN=C1c1ccc([N+](=O)[O-])cc1 (centres undefined)
inactive: [14] 100 % of control | [15] 100 % of control | [16] 94 % of control

CC1(C)N=C(N)N=C(N)N1c1cccc(CCCCC(=O)CCl)c1
inactive: dose: 12.5 mg/kg/injection, schedule: Q04DX003 (ip), vehicle: saline 109 % of control | dose: 25.0 mg/kg/injection, schedule: Q04DX003 (ip), vehicle: saline 102 % of control | dose: 50.0 mg/kg/injection, schedule: Q04DX003 (ip), vehicle: saline 110 % of control

Cc1c(NC(=O)Nc2ccccc2F)c(=O)n(-c2ccccc2)n1C
inactive: [17] 101 % of control | dose: 100.0 mg/kg/injection, schedule: Q01DX009 (ip), vehicle: acetone 86 % of control | [18] 112 % of control | [19] 95 % of control and 91 % of control | [20] 91 % of control | dose: 400.0 mg/kg/injection, schedule: Q01DX001 (ip), vehicle: saline 97 % of control and 98 % of control | [21] 95 % of control

CNC(=O)N(CCC#N)C1CCCCC1
inactive: dose: 100.0 mg/kg/injection, schedule: Q04DX003 (ip), vehicle: other 104 % of control | dose: 200.0 mg/kg/injection, schedule: Q04DX003 (ip), vehicle: other 106 % of control | dose: 400.0 mg/kg/injection, schedule: Q04DX003 (ip), vehicle: other 96 % of control

Cc1cccc(NC(=O)NCCCl)c1C
inactive: [14] 91 % of control | [15] 91 % of control | [16] 93 % of control

COc1cccc2c1C(=O)c1c(O)c3c(c(O)c1C2=O)C[C@@](O)(C(=O)CO)C[C@@H]3OC1CC(NC(=S)Nc2ccc(F)cc2)C(O)C(C)O1 (some centres undefined)
inactive: [18] 111 % of control | [20] 106 % of control | [21] 104 % of control

O=C(/C=C/C(=O)c1ccc(-c2ccccc2)cc1)c1ccc(-c2ccccc2)cc1
inactive: dose: 50.0 mg/kg/injection, schedule: Q01DX009 (ip), vehicle: Klucel (hydroxypropylcellulose) (HPC) 92 % of control | [8] 87 % of control | [10] 90 % of control | [12] 87 % of control

Clc1ccc2nncn2n1
inactive: dose: 50.0 mg/kg/injection, schedule: Q04DX003 (ip), vehicle: saline with Tween-80 97 % of control | [2] 100 % of control | [4] 100 % of control

COC(=O)c1ccc([N+](=O)[O-])c(O)c1
inactive: [8] 96 % of control | [9] 96 % of control | [10] 98 % of control | [11] 100 % of control | [12] 88 % of control | [13] 102 % of control

O=C(CNC(=O)c1ccccc1)N/N=C/c1ccc(Cl)cc1Cl
inactive: [1] 94 % of control | [3] 89 % of control | [5] 98 % of control

CCCCc1c(Cl)nc(Cl)nc1Cl
inactive: dose: 25.0 mg/kg/injection, schedule: Q01DX009 (ip), vehicle: saline with Tween-80 105 % of control | dose: 50.0 mg/kg/injection, schedule: Q01DX009 (ip), vehicle: saline with Tween-80 88 % of control

O=S1C=C(c2ccc(Cl)cc2)OC1 (centres undefined)
inactive: dose: 12.0 mg/kg/injection, schedule: Q01DX001 (ip), vehicle: saline 102 % of control | dose: 25.0 mg/kg/injection, schedule: Q01DX001 (ip), vehicle: saline 107 % of control | [22] 107 % of control

COc1ccc(OC)c(NC(=O)OCC(Cl)(Cl)Cl)c1
inactive: [6] 109 % of control | [7] 104 % of control | dose: 400.0 mg/kg/injection, schedule: Q01DX009 (ip), vehicle: saline 98 % of control

O=[N+]([O-])c1ccc(Oc2ccc(S(=O)(=O)c3ccc(Oc4ccc([N+](=O)[O-])cc4)c([N+](=O)[O-])c3)cc2[N+](=O)[O-])cc1
inactive: dose: 100.0 mg/kg/injection, schedule: Q01DX005 (ip), vehicle: Klucel (hydroxypropylcellulose) (HPC) 101 % of control | [8] 102 % of control | dose: 100.0 mg/kg/injection, schedule: Q04DX002 (ip), vehicle: Klucel (hydroxypropylcellulose) (HPC) 110 % of control | dose: 200.0 mg/kg/injection, schedule: Q01DX005 (ip), vehicle: Klucel (hydroxypropylcellulose) (HPC) 97 % of control | [10] 102 % of control | dose: 200.0 mg/kg/injection, schedule: Q04DX002 (ip), vehicle: Klucel (hydroxypropylcellulose) (HPC) 96 % of control | dose: 400.0 mg/kg/injection, schedule: Q01DX005 (ip), vehicle: Klucel (hydroxypropylcellulose) (HPC) 90 % of control | [12] 98 % of control | dose: 400.0 mg/kg/injection, schedule: Q04DX002 (ip), vehicle: Klucel (hydroxypropylcellulose) (HPC) 100 % of control

CCOC(=O)c1nnn(-c2cccnc2)c1C
inactive: dose: 100.0 mg/kg/injection, schedule: Q04DX002 (ip), vehicle: saline 99 % of control | dose: 200.0 mg/kg/injection, schedule: Q04DX002 (ip), vehicle: saline 101 % of control | dose: 400.0 mg/kg/injection, schedule: Q04DX002 (ip), vehicle: saline 92 % of control

CC(C)=C1C2CCC1C(COS(=O)(=O)c1ccc(C)cc1)C2COS(=O)(=O)c1ccc(C)cc1 (centres undefined)
inactive: [8] 96 % of control | [9] 98 % of control | [10] 100 % of control | [11] 104 % of control | [12] 94 % of control | [13] 102 % of control

C/C=C/CC1=C(O)c2ccccc2C(=O)C1=O
inactive: dose: 100.0 mg/kg/injection, schedule: Q01DX001 (ip), vehicle: water 98 % of control

N#CC1CN2c3ccc4ccccc4c3CCC2C1=O (centres undefined)
inactive: [22] 106 % of control | [17] 104 % of control | [19] 104 % of control
